Experimental data from PMC12903969, “Discovery of a Novel and Potent Kir4.1 Inhibitor as a Safe and Rapid‐Onset Antidepressant Agent in Mice” (Advanced Science, 2025).
Where two headings read alike, the source gives them in different places.

How the values were obtained:
[1] = tested on: MDA-MB-468 breast cancer cells; test: Cytotoxicity test (CCK-8); assay type: cell-based; conditions: read-out: IC50 ± SD (μM) for MDA-MB-468 Inhibition
Protocol: Cytotoxicity of all the tested compounds was determined using the cell counting kit‐8 (CCK‐8) assay kit (Beyotime, Shanghai, China). Briefly, MDA‐MB‐468 was cultured in L15 medium and plated in 96‐well plates at a density of 12,000 cells per well for 24 h at 37 °C in a 5% CO2 incubator. The tested compounds were dissolved in DMSO and diluted with culture medium (DMSO final concentration < 0.4%). Then the cells were treated with compounds (0.41, 1.23, 3.70, 11.11, 33.33, 100.00 µM) for 48 h. After treatments, removal of the supernatant liquor, 100 µL of new media diluted CCK‐8 solution (10% CCK‐8) was added into each well and incubated at 37 °C for 2 h. The absorbance of the mixture was directly measured at 450 nm. The results are presented as a percentage of the control.

Kir4.1 = target: T1, Kir4.1 (Homo sapiens, UniProt P78508); test: Whole-cell patch clamp, Kir4.1 currents in transfected CHO-K1 cells; assay type: cell-based; conditions: for inhibition at 10 µM: CHO-K1, 10 μM; for inhibition at 1 µM: CHO-K1, 1 μM
T1 construct: host or cells: CHO-K1
T1 sequence (P78508 1-379): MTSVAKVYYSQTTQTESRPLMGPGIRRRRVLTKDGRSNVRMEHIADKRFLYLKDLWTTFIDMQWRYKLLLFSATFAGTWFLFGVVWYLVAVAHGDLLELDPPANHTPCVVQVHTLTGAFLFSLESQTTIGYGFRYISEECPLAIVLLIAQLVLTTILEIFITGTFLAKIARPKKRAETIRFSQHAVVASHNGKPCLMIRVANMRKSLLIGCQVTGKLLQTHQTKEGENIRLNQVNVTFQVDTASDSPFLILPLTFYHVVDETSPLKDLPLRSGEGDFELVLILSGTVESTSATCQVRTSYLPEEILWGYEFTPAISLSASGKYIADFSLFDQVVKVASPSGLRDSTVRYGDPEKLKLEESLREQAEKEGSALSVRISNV
Protocol: Plasmids encoding WT human potassium channels Kir1.1, Kir2.1, Kir2.2, Kir4.1, and Kir4.2 were obtained from the Beijing Genomics Institute. All point mutations were constructed using the QuickChange II Site‐Directed Mutagenesis Kit (Stratagene) and subsequently verified by sequencing.
CHO‐K1 cells were maintained in DMEM/F12 growth medium containing 10% fetal bovine serum. Plasmids encoding the target genes (3600 ng) and enhanced green fluorescent protein (400 ng) were cotransfected into cells using Lipofectamine 2000 (Invitrogen) in accordance with the manufacturer's instructions. Cells were seeded onto poly‐d‐lysine (PDL)‐coated glass coverslips 1 h prior to electrophysiological recordings. All cells were cultured under standard conditions of 5% CO2 at 37 °C.
Whole‐cell patch‐clamp recordings were obtained either in transiently transfected CHO‐K1 cells or in primary cultured astrocytes at room temperature using standard patch‐clamp techniques with an Axopatch‐700B amplifier (Axon Instruments). The signals were filtered at 2 kHz and sampled at 20 kHz using the Digidata 1440A interface (Axon Instruments). The resistance of borosilicate glass pipettes was typically 2–4 MΩ when filled with the internal solution. Drug application was facilitated using a BPS perfusion system (ALA Scientific Instruments). Macroscopic currents generated by expressed potassium channels were recorded under the voltage‐clamp conditions with an internal pipette solution composed of (in mM): 140 KCl, 5 NaCl, 1 CaCl2, 1 MgCl2, 10 HEPES, and 10 EGTA, pH 7.2 adjusted with KOH. The external solution contained (in mM): 140 NaCl, 5 KCl, 2 CaCl2, 1 MgCl2, 10 glucose, and 10 HEPES, pH 7.4 adjusted with NaOH. Currents were elicited with a hyperpolarized voltage at −120 mV from the holding potential of −80 mV, followed by a ramp voltage depolarizing to +50 mV. Astrocytic resting membrane potentials were recorded under current‐clamp conditions (I = 0 pA) using standard internal and external solutions, determined immediately after achieving whole‐cell mode.

[2] = Homo sapiens, MDA-MB-468, MDA-MB-468 breast cancer cells
[3] = +50 mV, read-out: Kir4.1 Inhibition ± SD (%) at 10 μM, +50 mV
[4] = -120 mV, read-out: Kir4.1 Inhibition ± SD (%) at 10 μM, -120 mV
[5] = +50 mV, read-out: Kir4.1 Inhibition ± SD (%) at 1 μM, +50 mV
[6] = -120 mV, read-out: Kir4.1 Inhibition ± SD (%) at 1 μM, -120 mV
[7] = CHO-K1, 0.5 μM, +50 mV, read-out: Kir4.1 Inhibition ± SD (%) at 0.5 μM, +50 mV
[8] = CHO-K1, 0.5 μM, -120 mV, read-out: Kir4.1 Inhibition ± SD (%) at 0.5 μM, -120 mV

Compound	IC50 ([1]; MDA-MB-468 breast cancer cells)	Kir4.1 Inhibition ± SD (%) at 1 μM, +50 mV (Kir4.1; +50 mV)	Kir4.1 Inhibition ± SD (%) at 1 μM, -120 mV (Kir4.1; -120 mV)	Kir4.1 Inhibition ± SD (%) at 10 μM, +50 mV (Kir4.1; +50 mV)	Kir4.1 Inhibition ± SD (%) at 10 μM, -120 mV (Kir4.1; -120 mV)	IC50 [1, 2]	inhibition at 10 µM (Kir4.1; [3])	inhibition at 10 µM (Kir4.1; [4])	inhibition at 1 µM (Kir4.1; [5])	inhibition at 1 µM (Kir4.1; [6])	inhibition at 0.5 µM (Kir4.1; [7])	inhibition at 0.5 µM (Kir4.1; [8])	inhibition at 0.5 µM (Kir4.1; CHO-K1, 0.5 µM, read-out: Kir4.1 inhibition at 0.5 µM)
N^4-(1H-indol-5-yl)-N^2-(3-morpholinopropyl)pyrimidine-2,4-diamine [JX3207]	12.3 ± 1.32 µM	30.53 ± 6.87%	27.52 ± 8.17%	93.00 ± 1.73%	92.47 ± 0.40%	–	–	–	–	–	–	–	–
c1ccc2cc(Nc3ccnc(NCCCN4CCOCC4)n3)ccc2c1 [JX3205, N^2-(3-morpholinopropyl)-N^4-(naphthalen-2-yl)pyrimidine-2,4-diamine]	–	–	–	–	–	16.9 ± 1.65 µM	36.5 ± 10.2%	8.88 ± 10.2%	–	–	–	–	–
c1ccc2c(c1)oc1ccc(N[C@H]3CC[C@@H](NCCCN4CCOCC4)CC3)cc12 [JX3226, (1s,4s)-N^1-(dibenzo[b,d]furan-2-yl)-N^4-(3-morpholinopropyl)cyclohexane-1,4-diamine]	19.5 ± 1.64 µM	3.35 ± 4.46%	6.91 ± 6.13%	94.03 ± 1.98%	86.98 ± 0.69%	–	–	–	–	–	–	–	–
c1ccc2c(c1)oc1ccc(Nc3ccnc(OCCCN4CCOCC4)n3)cc12 [JX3231, N-(dibenzo[b,d]furan-2-yl)-2-(3-morpholinopropoxy)pyrimidin-4-amine]	–	–	–	–	–	19.7 ± 0.5 µM	96.3 ± 1.23%	90.5 ± 2.35%	7.39 ± 3.45%	4.14 ± 5.52%	–	–	–
CC1CC(C)CN(CCCNc2nccc(Nc3ccc4oc5ccccc5c4c3)n2)C1 (stereo not shown) [JX3247, N^4-(dibenzo[b,d]furan-2-yl)-N^2-(3-(3,5-dimethylpiperidin-1-yl)propyl)pyrimidine-2,4-diamine]	–	–	–	–	–	6.03 ± 0.24 µM	97.75 ± 0.84%	94.2 ± 2.26%	80.4 ± 8.36%	66.6 ± 2.75%	–	–	–
c1ccc2c(c1)oc1ccc(NC3CC4(CCN(CCCN5CCOCC5)CC4)C3)cc12 [JX3228, N-(dibenzo[b,d]furan-2-yl)-7-(3-morpholinopropyl)-7-azaspiro[3.5]nonan-2-amine]	–	–	–	–	–	11.2 ± 0.74 µM	73 ± 3.72%	17.1 ± 6.3%	18.4 ± 3.79%	0.88 ± 2.32%	–	–	–
Nc1ccnc(NCCCN2CCOCC2)n1 [JX3201, N^2-(3-morpholinopropyl)pyrimidine-2,4-diamine]	–	–	–	–	–	> 50 µM	3.02 ± 1.37%	4.04 ± 7.66%	–	–	–	–	–
c1cc(NC2CCCCC2)nc(NCCCN2CCOCC2)n1 [JX3202, N^4-cyclohexyl-N^2-(3-morpholinopropyl)pyrimidine-2,4-diamine]	–	–	–	–	–	21.1 ± 2.08 µM	6.08 ± 3.06%	2.79 ± 2.22%	–	–	–	–	–
CC1CCN(CCCNc2nccc(Nc3ccc4oc5ccccc5c4c3)n2)CC1 [JX3245, N^4-(dibenzo[b,d]furan-2-yl)-N^2-(3-(4-methylpiperidin-1-yl)propyl)pyrimidine-2,4-diamine]	–	–	–	–	–	5.95 ± 0.04 µM	96.84 ± 0.61%	95.5 ± 2.8%	96.35 ± 0.66%	92.48 ± 0.8%	21.4 ± 6.07%	9.76 ± 2.44%	–
c1ccc2c(c1)oc1ccc(Nc3ccnc(NCCCN4CCOCC4)c3)cc12 [JX3219, N^4-(dibenzo[b,d]furan-2-yl)-N^2-(3-morpholinopropyl)pyridine-2,4-diamine]	–	–	–	–	–	8.74 ± 0.36 µM	97.44 ± 0.6%	92.6 ± 5.66%	86.1 ± 3.36%	78.7 ± 8.16%	49.6 ± 6.47%	40.2 ± 4.35%	–
Fc1cnc(NCCCN2CCOCC2)nc1Nc1ccc2oc3ccccc3c2c1 [JX3217, N^4-(dibenzo[b,d]furan-2-yl)-5-fluoro-N^2-(3-morpholinopropyl)pyrimidine-2,4-diamine]	–	–	–	–	–	> 50 µM	11.9 ± 10.1%	7.77 ± 6.65%	–	–	–	–	–
c1ccc2c(c1)oc1ccc(Nc3ccnc(NCCCN4CCN(C5COC5)CC4)n3)cc12 [JX3248, N^4-(dibenzo[b,d]furan-2-yl)-N^2-(3-(4-(oxetan-3-yl)piperazin-1-yl)propyl)pyrimidine-2,4-diamine]	–	–	–	–	–	> 50 µM	97.46 ± 0.59%	81.5 ± 2.87%	21.9 ± 8.36%	11.5 ± 6.63%	–	–	–
c1ccc2c(c1)ccc1[nH]c3ccc(Nc4ccnc(NCCCN5CCOCC5)n4)cc3c12 [JX3215, N^4-(7H-benzo[c]carbazol-10-yl)-N^2-(3-morpholinopropyl)pyrimidine-2,4-diamine]	–	–	–	–	–	6.72 ± 0.28 µM	95.83 ± 0.42%	89.8 ± 1.62%	79.3 ± 3.86%	71 ± 2.19%	39.5 ± 5.16%	30.3 ± 5.33%	–
c1cc(Nc2ccc3[nH]ccc3c2)nc(NCCCN2CCOCC2)n1 [JX3206, N^4-(1H-indol-5-yl)-N^2-(3-morpholinopropyl)pyrimidine-2,4-diamine]	–	–	–	–	–	> 50 µM	38.4 ± 5.37%	25.9 ± 1.96%	–	–	–	–	–
O=C(NCCNc1nccc(Nc2ccc3oc4ccccc4c3c2)n1)N1CCOCC1 [JX3236, N-(2-((4-(dibenzo[b,d]furan-2-ylamino)pyrimidin-2-yl)amino)ethyl)morpholine-4-carboxamide]	–	–	–	–	–	21.9 ± 1.01 µM	89.24 ± 0.5%	70.8 ± 2.5%	5 ± 5.21%	-4.25 ± 7.82%	–	–	–
COC1CCN(CCCNc2nccc(Nc3ccc4oc5ccccc5c4c3)n2)CC1 [JX3246, N^4-(dibenzo[b,d]furan-2-yl)-N^2-(3-(4-methoxypiperidin-1-yl)propyl)pyrimidine-2,4-diamine]	–	–	–	–	–	9.97 ± 0.62 µM	91.3 ± 3.5%	89.5 ± 2.33%	73 ± 5.77%	55.4 ± 3.73%	–	–	–
c1ccc2c(c1)oc1ccc(Nc3ccnc(NCCCN4CCSCC4)n3)cc12 [JX3243, N^4-(dibenzo[b,d]furan-2-yl)-N^2-(3-thiomorpholinopropyl)pyrimidine-2,4-diamine]	–	–	–	–	–	7.11 ± 0.62 µM	98.74 ± 0.36%	98.6 ± 0.56%	-1.39 ± 1.64%	0.17 ± 1.63%	–	–	–
c1ccc2c(c1)oc1ccc(Nc3ccnc(NCCCN4CCCCC4)n3)cc12 [JX3244, N^4-(dibenzo[b,d]furan-2-yl)-N^2-(3-(piperidin-1-yl)propyl)pyrimidine-2,4-diamine]	–	–	–	–	–	6.86 ± 0.23 µM	98.66 ± 0.25%	97 ± 1.09%	85.4 ± 3.98%	74.5 ± 6.63%	74.9 ± 2.12%	63 ± 5.95%	> 60%
CCN(CC)CCCNc1nccc(Nc2ccc3oc4ccccc4c3c2)n1 [JX3238, N^4-(dibenzo[b,d]furan-2-yl)-N^2-(3-(diethylamino)propyl)pyrimidine-2,4-diamine]	–	–	–	–	–	10.3 ± 3.8 µM	98.5 ± 0.23%	93.1 ± 2.15%	27 ± 12.3%	2.21 ± 3.14%	–	–	–
